This assay relates to phenylhydrazine (PHZ)-treated mice. The experiment in a line: FF/Arf i.p. in PHZ-treated mice at sub-lethal dose of 60 mg/kg. The assay is classed as in vivo.

Counter-ions that a name gives are not always drawn.

As to `COc1ccc(C[C@@H](C)NC[C@H](O)c2ccc(O)c(NC=O)c2)cc1` [Arf, N-[2-hydroxy-5-[(1R)-1-hydroxy-2-[[(1R)-2-(4-methoxyphenyl)-1-methylethyl]amino]ethyl]phenyl]-formamide, (2R,3R)-2,3-dihydroxybutanedioate (1:1 salt)], the “transferrin receptor expression in CFU-e derived from BMPs” value (FIG. 39B) was “transferrin receptor expression is enhanced”. The “Hemoglobin (Hb) in peripheral blood” value (after 7 and 14 days of i.p., FIG. 35) is reported as “increase Hemoglobin (Hb)”. The “RBC parameters (HCT % and RBCs) in peripheral blood” value (after 7 days of i.p., FIG. 34) was “increases RBC parameters”. In addition, the “LS-K and LSK cells in bone marrow progenitors” value (after 14 days of i.p., FIG. 36A-36B) was “increase LSK, LS-K, and mitochondrial activity”. In addition, under “after 14 days of i.p., FIG. 36C”, the “mitochondrial membrane potential (TMRE staining) in bone marrow progenitors” value was “increase LSK, LS-K, and mitochondrial activity”. Further, the “megakaryocyte erythrocyte progenitors (MEP) in BM” value (after 14 days of i.p., FIG. 37A) is listed as “increase megakaryocyte erythrocyte progenitors (MEP)”. Also, the body weights entry (i.p., PHZ 60 mg/kg, FIG. 32) is listed as “enhances body weights”. Besides, the “platelets and WBCs in peripheral blood” value (i.p., PHZ 60 mg/kg, FIG. 33) was “do not affect platelets and WBCs”.

Values taken from patent publication US12697313B2, “Methods of treating anemia using formoterol or a pharmaceutically acceptable salt thereof” (Dana-Farber Cancer Institute, Inc., priority 2022, dated 2026).
